Patent publication US20240172747A1, “USE OF SORBIC ACID AND SALTS THEREOF AS A NEMATOCIDE” (GONELLA INVENT SOCIETA' A RESPONSABILITA' LIMITATA […], priority 2021, published 2024)
Values joined by “and” are separate entries in the source; they are usually repeats but may differ in a detail not shown here. Equal entries are not always repeated.

Assays:
[1] = test system: larvae of the genus Meloydogine, Heterodera and Globodera; conditions: laboratory tests
Meloidogyne J2 larvae = assay: Motility/mortality test on Meloidogyne J2 larvae in suspension; type: in vivo; conditions: single replicates; for READING % IMMOBILE J2 @ 2 H: 2 h exposure; for % DEAD J2 @ 24 H: 24 h exposure
Protocol: Extraction of root-knot nematodes taken from soil cultivated with basil (Ocimum basilicum) with strong infestation (J2 larvae) from about 500 cc of soil by means of a wool-paper filter (EPPO Bulletin 13,2013) and concentration in distilled water.
The Tests were established by adding an amount of stock solution to one ml of nematode suspension, so as to obtain the final established concentrations.
Nematodes motility parameters were evaluated after 2 h and after 24 h exposure of the J2 larvae to the nematocidal substance.
In the first test, the count was carried out by microscopic observation of immobile nematodes after 2 hours exposure to the product, to evaluate a possible […] effect of the substance. In the second test, the count was carried out by microscopic observation of the nematodes considered dead with strong signs of tissue degeneration (thickening and blistering in the nematode body accompanied by the final folding of the body at right angle).

M. incognita nematodes = test system: M. incognita nematodes
Excerpt: The trial was followed by a test center (third body) in the Vittoria area (RG) in greenhouses with continuous cycles of courgette (Cucurbita pepo) subjected to strong pressure of M. incognita nematodes. […] First application at day 1 after transplantation (DAT), second application at day 7 DAT, third application at day 21 DAT.
The follow-up was scheduled at day 45 (FIG. 5 and FIG. 6) and day 90 after the first treatment. […] Following this screening trial, new large-scale tests will begin to establish optimal doses, modes and volume of distribution. From Table 3 below, it was possible to evaluate the % of nematode attack with a count of the damage present on the root system (galls).

[2] = test system: Meloidogyne incognita eggs
Protocol: In order to evaluate the efficacy in containing the root-knot nematode Meloidogyne incognita, several in vitro experimental tests were carried out using a sorbic acid solution containing 1 mg/ml of active substance at 98% purity. The average of the tests is reported.
This test concentration was tested on unsegmented and embryonated eggs of M. incognita.
The tests carried out were developed in vitro using double concave glass lenses, by introducing 2 ml of the test solution containing 1 mg/ml of sorbic acid, or sterile water in the case of the control. The incubation took place at a room temperature of 22° C., in the dark. The population of M. incognita was from plants raised in an open field of tomatoes (Solanum lycopersicum).
Unsegmented and embryonated eggs: the eggs were collected from the ovisacs and placed in a double concave glass lens in the presence of the solution to be tested.
Counts of hatched larvae were carried out for 7 days with daily counting and microscopic observation.

nematodes = conditions: laboratory test in a jar, after application
Excerpt: A dose ranging from 0.0001% to 0.001% is considered a “sub-lethal” or “nematostatic” dose, and therefore is a dose which may not kill the nematode but inhibits its mobility and pest capacity.

insects or mites = conditions: laboratory tests
[3] = OECD Test Guideline 402; cited from earlier work
[4] = OECD Test Guideline 403; cited from earlier work
[5] = 25° C.; cited from earlier work
[6] = TEST 1: Potassium Sorbate (80% purity) 250 μg/ml
[7] = TEST 2: Potassium Sorbate 500 μg/ml
[8] = TEST 3: Potassium Sorbate 1 mg/ml

## C/C=C/C=C/C(=O)[O-].C/C=C/C=C/C(=O)[O-].[Ca+2] [Calcium Sorbate, calcium sorbate]
[1]
  effect on larvae of the genus Meloydogine, on Heterodera and Globodera: had an effect

## C/C=C/C=C/C(=O)[O-].[K+] [Potassium Sorbate, potassium sorbate]
Meloidogyne J2 larvae; [6]
  READING % IMMOBILE J2 @ 2 H: 10% and 5% and 7% and 2%
  % DEAD J2 @ 24 H: 15% and 12% and 18% and 10%
Meloidogyne J2 larvae; [7]
  READING % IMMOBILE J2 @ 2 H: 40% and 38% and 45% and 43%
  % DEAD J2 @ 24 H: 80% and 76% and 75% (2×)
Meloidogyne J2 larvae; [8]
  READING % IMMOBILE J2 @ 2 H: 75% (2×) and 78% and 80%
  % DEAD J2 @ 24 H: 98% and 99% and 100% and 96%
M. incognita nematodes; 10 kg/ha
  Average weight of a courgette: 0.24 kg
M. incognita nematodes; 10 kg/ha, mean of 20 plants
  Average production of a plant, No. courgettes: 15.75
  Average production of a plant, Weight in kg: 3.78 kg
M. incognita nematodes; field application, courgette
  toxicity or damage of the root system: without leading to toxicity or damage of the root system
[1]
  effect on larvae of the genus Meloydogine, on Heterodera and Globodera: had an effect

## C/C=C/C=C/C(=O)[O-].[Na+] [Sodium Sorbate, sodium sorbate]
[1]
  effect on larvae of the genus Meloydogine, on Heterodera and Globodera: had an effect

## C/C=C/C=C/C(=O)O [Sorbic Acid, 2,4-hexadienoic acid]
[2]; 1 mg/ml sorbic acid (98% purity), 22° C., dark, Day 1, average of tests
  hatched larvae, Day 1 DAT: 0
[2]; 1 mg/ml sorbic acid, 22° C., dark, Day 2, average of tests
  hatched larvae, Day 2 DAT: 0%
[2]; 1 mg/ml sorbic acid, 22° C., dark, Day 3, average of tests
  hatched larvae, Day 3 DAT: 0%
[2]; 1 mg/ml sorbic acid, 22° C., dark, Day 4, average of tests
  hatched larvae, Day 4 DAT: 0%
[2]; 1 mg/ml sorbic acid, 22° C., dark, Day 5, average of tests
  hatched larvae, Day 5 DAT: 0%
[2]; 1 mg/ml sorbic acid, 22° C., dark, Day 6, average of tests
  hatched larvae, Day 6 DAT: 1%
[2]; 1 mg/ml sorbic acid, 22° C., dark, Day 7, average of tests
  hatched larvae, Day 7 DAT: 3%
[2]; 1 mg/ml sorbic acid, in vitro
  efficacy on egg embryogenesis and larvae: allowing the inhibition of egg embryogenesis and excellent action on larvae, both free and included in ovisacs
nematodes
  nematostatic effect: number of immature forms: a greater number of immature forms
Insects or mites
  insecticidal or acaricidal activity: no insecticidal activity (insect kingdom) or acaricidal activity has been found
[1]
  effect on larvae of the genus Meloydogine, on Heterodera and Globodera: had an effect
[3]
  Lethal Dose 50: LD50: > 3000 mg/kg
[4]
  Lethal Concentration 50: LC50: 5.1 mg·L
[5]
  partition coefficient: n-octanol/water, log Pow: 1.32

## Abamectin [REFERENCE, reference compound]
Meloidogyne J2 larvae; Reference: Abamectin 90 μg/ml
  READING % IMMOBILE J2 @ 2 H: 100% and 99% (2×) and 98%
  % DEAD J2 @ 24 H: 100% (3×) and 99%
